Results: patent US20240358693A1, “METHODS OF TREATING PAIN” (Aisa Pharma, Inc., priority 2023, published 2024)

Test system: participants with SSc-RP
Assay: Pain score recorded during weekly RP attacks (11-point Likert scale)
Format: in vivo, human
Conditions: for Average Pain Score [Mean (SD)]: on treatment, N = 24
From the text: The absolute change in average pain score (11-point Likert scale) of weekly RP attacks from baseline to the end of each Dosing Period will be a secondary outcome variable. The sponsor-developed participant-informed diary will be used to record data. The average pain score of weekly RP attacks is defined as the total pain scores divided by total number of RP attacks within the last 7 days of each dosing period. Average of the last 7 days of screening assessments will be used as baseline for the analysis of all periods. The variable will be calculated similar to frequency data as before.

Row | SMILES | Average Pain Score, Change From Baseline, Mean (Cilnidipine 10 mg (n = 4)) | Average Pain Score, Percent Change from Baseline, Mean (Cilnidipine 10 mg (n = 4)) | Average Pain Score [Mean (SD)] (Cilnidipine 10 mg (n = 4)) | Average Pain Score [Mean (SD)] (Cilnidipine 20 mg (n = 3)) | Average Pain Score, Change From Baseline, Mean (Cilnidipine (20 mg) (n = 3)) | Average Pain Score, Percent Change from Baseline, Mean (Cilnidipine (20 mg) (n = 3)) | Average Raynaud's Pain (Cilnidipine (20 mg) (n = 3)) | Mean pain level at baseline (Cilnidipine (20 mg) (n = 3)) | Mean percent change in pain score from baseline (Cilnidipine (20 mg) (n = 3)) | Average Raynaud's Pain (Pooled Cilnidipine (n = 7)) | Average Pain Score, Change From Baseline, Mean (Tadalafil 5 mg (n = 4)) | Average Pain Score, Percent Change from Baseline, Mean (Tadalafil 5 mg (n = 4)) | Average Pain Score [Mean (SD)] (Tadalafil 5 mg (n = 4))
1 | COCCOC(=O)C1=C(C)NC(C)=C(C(=O)OC/C=C/c2ccccc2)C1c1cccc([N+](=O)[O-])c1 (stereo not shown) [Cilnidipine, cilnidipine] | 0.47 | 11.76% | 2.82 (2.268) | 1.28 (1.993) | −0.47 | −26.89% | 12% | 2.3 | −11.8% | −27% |  |  | 
2 | CN1CC(=O)N2[C@H](c3ccc4c(c3)OCO4)c3[nH]c4ccccc4c3C[C@@H]2C1=O [Tadalafil, tadalafil] |  |  |  |  |  |  |  |  |  |  | 0.37 | 17.20% | 5.84 (4.768)
